Data as given in patent US11548894B2, “Benzamide or benzamine compounds useful as anticancer agents for the treatment of human cancers” (The Board of Regents of the University of Texas System, priority 2015, dated 2023).
Read-outs that look alike come from different tables or passages of the source.

Assays:
Mut6 cells (TD-NSC) = assay: luminescence-based Celltiter-Glo cell viability assay (ATP levels) on Mut6 tumor derived neuronal stem cells; design: species or system mouse; details: ATP activity as measure of viability, 96 hours, read-out: EC50 (TD-NSC)
Text: A mouse colony with 100% incidence of GBM and with conditional knockout of p53, pTEN and NF1 genes (Mut6; glioblastoma) was used to isolate primary neuronal stem cells from GBM tumors cultured in 5% Oxygen and in serum free media with defined growth factors. Primary cells from multiple tumors were pooled for high throughput screening with controls against the University of Texas Southwestern (UTSW) compound file, which encompasses ˜200,000 synthetic compounds that represent a large chemical space from several commercial vendors, including 1200 marketed drugs from the Prestwick Chemical Library®, and 600 compounds that went to pre-clinical tests from the NIH library.
A luminescence-based Celltiter-Glo® assay was performed to measure cell viability, using ATP levels as the readout. In brief, opaque-walled multiwell plates with Mut6 cells in culture medium (25 μl per well, 384-well plates) were prepared. Control wells containing medium without cells were prepared to obtain a value for background luminescence. Test compounds were added to experimental wells, and incubated according to culture protocol. The plate and its contents were incubated at 37° C., 5% […] for 96 hours. An ATP standard curve was generated immediately prior to adding the CellTiter-Glo® Reagent. A volume of CellTiter-Glo® Reagent equal to the volume of cell culture medium present in each well (25 μl of reagent to 25 μl of medium containing cells for a 384-well plate) was added. The contents were mixed for 2 minutes on an orbital shaker to induce cell lysis. The plate was allowed to incubate at room temperature for 10 minutes to stabilize the luminescent signal and luminescence recorded. (e.g. GloMax®, Lumistar, SPECTROstar, PHERAstar FS).
Compound 4C12 served as initial lead compound for analog development and for additional studies. […] See Wager, T T et al, “Moving beyond rules: the development of a central nervous system multi-parameter-optimization (CNS MPO) approach to enable alignment of drug-like properties,” ACS Chem. Neurosci. 1(6): 435-49 (2010). IC50 curves for the analog compounds plotted as ATP activity (y axis, a measure of viability) vs. concentration (nM) (x-axis) are shown in FIG. 9.

[1] = S9 Metabolism Assay (half-life by substrate depletion); assay type: in vitro ADME; details: female, ICR/CD-1, S9 fractions, pH 7.5; mouse S9, 2 μM compound; time plotted in min; read-out: S9 T1/2
Protocol: Female ICR/CD-1 mouse S9 fractions were purchased from Celsis/In Vitro Technologies (Baltimore, Md.). 25 μl (0.5 mg) of S9 protein was added to a 15 ml glass screw cap tube. 350 μl of a 50 mM Tris, pH 7.5 solution, containing the compound of interest was added on ice. The final concentration of compound after addition of all reagents was 2 μM. 125 μl of an NADPH-regenerating system (1.7 mg/ml NADP, 7.8 mg/ml glucose-6-phosphate, 6 U/ml glucose-6-phosphate dehydrogenase in 2% w/v NaHCO3/10 mm MgCl2) was added for analysis of Phase I metabolism. Uridine 5′-diphospho-α-D-glucuronic acid (UDPGA 1.9 mg/ml) and 3′-phosphoadenosine-5′-phosphosulphate (PAPS, 100 mg/ml) were additionally added for phase II reactions. The tube was then placed in a 37° C. shaking water bath. At varying time points after addition of phase I and phase II cofactors, the reaction was stopped by the addition of 0.5 ml of methanol containing 0.2% formic acid and 200 ng/ml internal standard (either n-benzylbenzamide or tolbutamide, Sigma, St. Louis, Mo.). The samples were incubated 10′ at RT and then spun at 16,100×g for 5 min in a microcentrifuge. The supernatant was analyzed by LC-MS/MS. Metabolism of 7-ethoxycoumarin was used to monitor […] performance. Analytical methods were developed for each compound using an Applied Biosystems (Foster City, Calif.) 4000-QTrap, a combination triple quadrupole/ion trap instrument. The parent ion and the two most prominent daughter ions were followed to confirm compound identity, although only the most abundant daughter was used for quantitation. A Shimadzu (Columbia, Md.) Prominence LC with Agilent C18 XDB column (5 micron packing; 50×4.6 mm) was used for chromatography.
The method described in McNaney, et al (McNaney, C A, D M Drexler, S Hnatyshyn, T A Zvyaga, J O Knipe, J V Belcastro, and M Sanders. 2008. An automated liquid chromatography-mass spectrometry process to determine metabolic stability half-life and intrinsic clearance of drug candidates by substrate depletion. Assay and Drug Development Technologies 6:121-129. Determination of Plasma and Brain Pharmacokinetics) was used with modification for determination of metabolic stability half-life by substrate depletion. A “% remaining” value was used to assess metabolic stability of a compound over time. The LC/MS/MS peak area of the incubated sample at each time point was divided by the LC/MS/MS peak area of the time 0 (TO) sample and multiplied by 100. The natural Log (LN) of the % remaining of compound was then plotted versus time (in min) and a linear regression curve plotted going through y-intercept at LN(100).

Structure (SMILES) | EC50 (Mut6 cells (TD-NSC); Mus musculus, 96 h) [nM] | half-life at 2 μM [1] [h] | EC50 (Mut6 cells (TD-NSC)) [nM]
CCN1CCCC1CNC(=O)c1ccc(Sc2ccc(F)cc2)c(C#N)c1 (centres unmarked) [DS-1-227, 3-cyano-N-((1-ethylpyrrolidin-2-yl)methyl)-4-((4-fluorophenyl)thio)benzamide] | 53 | 1.08 | –
N#Cc1cc(C(=O)NCCN2CCOCC2)ccc1Sc1ccc(F)cc1 [DS-2-027, 3-cyano-4-((4-fluorophenyl)thio)-N-(2-morpholinoethyl)benzamide] | – | 0.668 | –
O=C(NCCN1CCCC1)c1ccc(Sc2ccc(F)cc2)c([N+](=O)[O-])c1 [DS-1-063, 4-((4-fluorophenyl)thio)-3-nitro-N-(2-(pyrrolidin-1-yl)ethyl)benzamide] | 52 | 3.12 | –
O=C(NCCCN1CCOCC1)c1ccc(Sc2ccc(F)cc2)c([N+](=O)[O-])c1 [DS-1-283, 4-((4-fluorophenyl)thio)-N-(3-morpholinopropyl)-3-nitrobenzamide] | 42 | 1.56 | –
CCN1CCC[C@@H]1CNC(=O)c1ccc(Sc2ccc(F)cc2)c([N+](=O)[O-])c1 [DS-1-031, (R)—N-((1-ethylpyrrolidin-2-yl)methyl)-4-((4-fluorophenyl)thio)-3-nitrobenzamide] | 33 | 1.89 | –
CCN(CC)CCNC(=O)c1ccc(Sc2ccc(F)cc2)c([N+](=O)[O-])c1 [DS-1-043, N-(2-(diethylamino)ethyl)-4-((4-fluorophenyl)thio)-3-nitrobenzamide] | – | 0.75 | 22
CCN1CCCC1CNC(=O)c1ccc(Sc2ccc(F)cc2)c(F)c1 (centres unmarked) [DS-2-053, N-((1-ethylpyrrolidin-2-yl)methyl)-3-fluoro-4-((4-fluorophenyl)thio)benzamide] | 87 | 0.683 | –
CCN1CCCC1CNC(=O)c1ccc(SCc2ccc(F)cc2)c([N+](=O)[O-])c1 (centres unmarked) [DS-1-131, N-((1-ethylpyrrolidin-2-yl)methyl)-4-((4-fluorobenzyl)thio)-3-nitrobenzamide] | 35 | 1.6 | –
CCN1CCCC1CNC(=O)c1ccc(Sc2cccc(F)c2)c([N+](=O)[O-])c1 (centres unmarked) [DS-1-069, N-((1-ethylpyrrolidin-2-yl)methyl)-4-((3-fluorophenyl)thio)-3-nitrobenzamide] | 88 | 0.587 | –
CN1CCCC1CCNC(=O)c1ccc(Sc2ccc(F)cc2)c([N+](=O)[O-])c1 (centres unmarked) [DS-1-061, 4-((4-fluorophenyl)thio)-N-(2-(1-methylpyrrolidin-2-yl)ethyl)-3-nitrobenzamide] | 79 | 1.75 | –
CC1C2CCCN2CCN1C(=O)c1ccc(Sc2ccc(F)cc2)c([N+](=O)[O-])c1 (centres unmarked) [DS-1-279, (4-((4-fluorophenyl)thio)-3-nitrophenyl)(1-methylhexahydropyrrolo[1,2-a]pyrazin-2(1H)-yl)methanone] | 58 | 0.445 | –
CCN1CCCC1CNC(=O)c1ccc(Sc2ccccc2)c([N+](=O)[O-])c1 (centres unmarked) [DS-1-055, N-((1-ethylpyrrolidin-2-yl)methyl)-3-nitro-4-(phenylthio)benzamide] | 50 | 0.59 | –
N#Cc1cc(C(=O)NCCN2CCOCC2)ccc1Oc1ccc(F)cc1 [DS-2-045, 3-cyano-4-(4-fluorophenoxy)-N-(2-morpholinoethyl)benzamide] | 74 | 1.65 | –
CCN1CCCC1CNC(=O)c1ccc(Sc2ccc(Cl)cc2)c([N+](=O)[O-])c1 (centres unmarked) [DS-1-163, 4-((4-chlorophenyl)thio)-N-((1-ethylpyrrolidin-2-yl)methyl)-3-nitrobenzamide] | 51 | 1.48 | –
CCN1CCCC1CNC(=O)c1ccc(Sc2ccc(F)cc2)c(S(C)(=O)=O)c1 (centres unmarked) [DS-1-301, N-((1-ethylpyrrolidin-2-yl)methyl)-4-((4-fluorophenyl)thio)-3-(methylsulfonyl)benzamide] | 236 | > 4 | –
O=C(NC[C@@H]1CCCN1)c1ccc(Sc2ccc(F)cc2)c([N+](=O)[O-])c1 [DS-1-085, (S)-4-((4-fluorophenyl)thio)-3-nitro-N-(pyrrolidin-2-ylmethyl)benzamide] | 132 | 4 | –
CCN1CCCC1CNCc1ccc(Sc2ccc(F)cc2)c([N+](=O)[O-])c1 (centres unmarked) [DS-1-079, 1-(1-ethylpyrrolidin-2-yl)-N-(4-((4-fluorophenyl)thio)-3-nitrobenzyl)methanamine] | 36 | 0.357 | –
CCN1CCCC1CNC(=O)c1ccc(Sc2ccc(F)cc2)c([N+](=O)[O-])c1 (centres unmarked) [DS-1-033, N-((1-ethylpyrrolidin-2-yl)methyl)-4-((4-fluorophenyl)thio)-3-nitrobenzamide] | – | 1.98 | 45
CCN1CCC[C@H]1CNC(=O)c1ccc(Sc2ccc(F)cc2)c([N+](=O)[O-])c1 [DS-1-053, (S)—N-((1-ethylpyrrolidin-2-yl)methy)-4-((4-fluorophenyl)thio)-3-nitrobenzamide] | 31 | 1.1 | –
CCN1CCCC1CNC(=O)c1ccc(Sc2ccc(OC)cc2)c([N+](=O)[O-])c1 (centres unmarked) [DS-1-133, N-((1-ethylpyrrolidin-2-yl)methyl)-4-((4-methoxyphenyl)thio)-3-nitrobenzamide] | 62 | 0.802 | –
CCN1CCCC1CNC(=O)c1ccc(Oc2ccc(F)cc2)c(C#N)c1 (centres unmarked) [DS-1-311, 3-cyano-N-((1-ethylpyrrolidin-2-yl)methyl)-4-(4-fluorophenoxy)benzamide] | – | 1.96 | –
CCN1CCCC1CNC(=O)c1ccc(-c2cccc(F)c2)c([N+](=O)[O-])c1 (centres unmarked) [DS-1-183, N-((1-ethylpyrrolidin-2-yl)methyl)-3′-fluoro-2-nitro-[1,1′-biphenyl]-4-carboxamide] | > 1000 | – | –
CCN1CCCC1CNC(=O)c1ccc(Nc2ccc(F)cc2)c([N+](=O)[O-])c1 (centres unmarked) [DS-1-105, N-((1-ethylpyrrolidin-2-yl)methyl)-4-((4-fluorophenyl)amino)-3-nitrobenzamide] | 255 | – | –
C#CCN(CC)CCNC(=O)c1ccc(Sc2ccc(F)cc2)c([N+](=O)[O-])c1 [DS-2-035, N-(2-(ethyl(prop-2-yn-1-yl)amino)ethyl)-4-((4-fluorophenyl)thio)-3-nitrobenzamide] | 49 | – | –
CCN1CCCC1CNC(=O)c1ccc(Sc2ccncc2)c([N+](=O)[O-])c1 (centres unmarked) [DS-1-129, N-((1-ethylpyrrolidin-2-yl)methyl)-3-nitro-4-(pyridin-4-ylthio)benzamide] | 150 | 1.54 | –
CCN1CCCC1CNC(=O)c1ccc(Sc2ccc(F)cc2F)c([N+](=O)[O-])c1 (centres unmarked) [DS-1-125, 4-((2,4-difluorophenyl)thio)-N-((1-ethylpyrrolidin-2-yl)methyl)-3-nitrobenzamide] | 51 | 1.46 | –
